How the values were obtained:
[1] = Case report: Rheumatoid Arthritis of the hands, topical ointment; conditions: for pain in hand: person, within hours of applying; for mobility of joints: sustained applications over several days
cold sores = assay: Case reports: recurrent cold sores, topical application; assay type: in vivo, human; conditions: Patient A, 100 mg/ml topically
Genital Herpes = assay: Case report: recurrent Genital Herpes; assay type: in vivo, human
From the text: Patient with a long history of recurrent Genital Herpes was using Diltiazem.

[2] = Case report: fever, chills, muscle aches, nausea and diarrhea; assay type: in vivo, human; conditions: person; 120 mg tablets every 8 hours; within one hour of first tablet
From the text: A person with a three day history of fever, chills, muscle aches and nausea. On the second and third days the patient developed increasing diarrhea. On the morning of the third day the patient was experiencing loose, watery stools with a cramps and lower abdominal pain.

Herpes Zoster infection = assay: Case report: Herpes Zoster infection; assay type: in vivo, human; conditions: elderly patient; 120 mg SR twice daily
From the text: Elderly patient with Herpes Zoster infection on the upper left abdomen.

[3] = system: viral upper respiratory infection; assay: Case report: viral upper respiratory infection, intranasal/throat spray
From the text: person with symptoms of viral upper respiratory infection started experiencing nasal congestion and nasal discharge.

[4] = Case report: latex glove allergy (delayed hypersensitivity reaction); assay type: in vivo, human
From the text: A person surgeon with a latex glove allergy. Symptoms of a red eczematous rash develops when they use latex gloves.

HIV = assay: Case report: HIV patient, T4 helper counts; assay type: in vivo, human; conditions: 240 mg (120 mg of verapamilSR) twice daily for 2 weeks

SMILES	pain in hand [1]	mobility of joints [1]	cold sore infection when applied in the initial tingling phase (cold sores)	severity and size of cold sore when application delayed until eruption visible (cold sores)	time to complete healing clearance (cold sores; application delayed until eruption visible, usual 7 days)	frequency of genital herpes recurrences (Genital Herpes; after starting treatment, before: several episodes per year)	size and healing of genital herpes episodes (Genital Herpes; when on treatment)	abdominal cramping, stools and diarrhea [2]	pain, rash and healing of lesions (Herpes Zoster infection)	time until nasal discharge stopped ([3]; 0.2 ml of 2 mg/ml sprayed into each nostril and back of throat)	upper respiratory symptoms ([3]; next day, after repeated 0.1 ml applications intranasally and to throat)	nasal congestion and nasal discharge ([3]; person, 0.2 ml of 2 mg/ml sprayed into each nostril and back of throat, within minutes)	chronic rash from daily exposure to latex ([4]; 200 mg/ml ointment)	delayed hypersensitivity reaction to latex gloves ([4]; 200 mg/ml ointment applied prior to wearing latex gloves)	T4 helper counts (HIV)
COc1ccc([C@@H]2Sc3ccccc3N(CCN(C)C)C(=O)[C@@H]2OC(C)=O)cc1 [Diltiazem, diltiazem]	significant reduction of pain in their hand	improved mobility of joints	the infection could be prevented	minimize the severity, reduce the size	2 to 4 days	1-2 episodes per year	much smaller and seemed to heal much quicker								
COc1ccc(CCN(C)CCCC(C#N)(c2ccc(OC)c(OC)c2)C(C)C)cc1OC (centres unmarked) [Verapamil, verapamil]	significant reduction of pain in their hand	improved mobility of joints						abdominal cramping began subsiding and their stools began to become more formed and diarrhea improved	reduced pain, reduced rash and rapid healing of lesions	approximately 20 minutes	cleared	reduction in nasal congestion and decreased nasal discharge	improved within hours	prevented	significant rise in T4 helper counts
